Source: publication PMC6071089 (Nanomaterials, 2018)

System: C2C12 cells
Test: Inhibition of CCPs- and caveolae-mediated endocytosis of CK2.3-Qdots
Format: cell-based, murine
Conditions: then 100 nM CK2.3-Qdots 18 h, confocal
Procedure: C2C12 cells were grown in 35 mm dishes containing 18 mm × 18 mm square coverslips at a cell density of 1 × 10^4 cells/well for two days in DMEM media containing 20% FBS and 1% penicillin/streptomycin and at the end of the 2nd day, cells were serum starved with phenol-free DMEM media supplemented with 1% penicillin/streptomycin, but without FBS for 18 h. Next, we used chlorpromazine from Cayman chemical (Ann Arbor, MI, USA) to inhibit CCPs-mediated endocytosis. […] C2C12 cells were treated with 5 μm of Chlorpromazine in DMEM media supplemented with 10% FBS and 1% penicillin/streptomycin for 24 h [41]. […] C2C12 cells were treated with 50 μm of Lovastatin in phenol-free DMEM without FBS and supplemented only with 1% penicillin/streptomycin for 24 h [41, 42]. […] C2C12 cells were treated with 100 μm of methyl-β-cyclodextrin in phenol-free DMEM without FBS and supplemented only with 1% penicillin/streptomycin for 24 h [43]. […] After 18 h, cells were fixed using 4.4% (w/v) paraformaldehyde purchased from Sigma-Aldrich (St. Louis, MO, USA) for 20 min and permeabilized with 0.05% (w/v) saponin from Sigma-Aldrich (St. Louis, MO, USA) diluted in diH2O, for 10 min on ice. Later the nucleus was stained using 100 μL (0.5 ng/mL) of Hoechst (catalog # 23491-45-4) from Sigma-Aldrich (St. Louis, MO, USA). The coverslips were then mounted on the slides using Airvol [38]. Slides were imaged using Zeiss LSM 710 at 63×/1.4 Plan-Apochromat oil objective.
To inhibit both endocytic pathways we used methyl-β-cyclodextrin (MβCD) [60]. […] C2C12 cells were either left unstimulated or stimulated with the pharmacological inhibitors for 24 h. […] Cells were fixed, and images were collected using a confocal microscope (Figure 11).

CN(C)CCCN1c2ccccc2Sc2ccc(Cl)cc21 [chlorpromazine, Chlorpromazine]
effect of inhibitor on uptake of CK2.3-Qdots (chlorpromazine 5 μm, 24 h pre-treatment (CCP inhibitor)): did not affect the uptake

CC[C@H](C)C(=O)O[C@H]1C[C@@H](C)C=C2C=C[C@H](C)[C@H](CC[C@@H]3C[C@@H](O)CC(=O)O3)[C@H]21 [lovastatin, Lovastatin]
effect of inhibitor on uptake of CK2.3-Qdots (lovastatin 50 μm, 24 h pre-treatment (caveolae inhibitor)): prevented CK2.3-Qdot®s from entering C2C12 cells

Methyl-β-cyclodextrin [MβCD]
effect of inhibitor on uptake of CK2.3-Qdots (methyl-β-cyclodextrin 100 μm, 24 h pre-treatment (CCP and caveolae inhibitor)): prevented CK2.3-Qdot®s from entering C2C12 cells
